According to patent US20230293512A1, “S100 PROTEINS AS NOVEL THERAPEUTIC TARGETS IN MYELOPROLIFERATIVE NEOPLASMS” (ERASMUS UNIVERSITY MEDICAL CENTER ROTTERDAM, priority 2020, published 2023):

Key:
[1] = system: mice developing JAK2(V617F)-mediated myelofibrosis; experiment: Tasquinimod treatment of mice with JAK2(V617F)-induced myelofibrosis; format: in vivo; settings: JAK2(V617F)-transplanted mice, 30 mg/kg/day in drinking water; for MPN-specific leukocytosis (white blood cell counts from peripheral blood) / splenomegaly (spleen weights normalized to mouse weight) / bone marrow fibrosis grade (reticulin grade): 30 mg/kg/day; for bone marrow fibrosis grade (reticulin grade): vehicle-treated mice developed grade 2-3 fibrosis and osteosclerosis
Description: Murine organs were fixed in 4% paraformaldehyde for 24 hours and transferred to 70% ethanol. Femurs were decalcified in 10% EDTA/Tris-HCl (pH 6.6) solution for 72 hours, dehydrated and paraffin embedded. H&E and reticulin staining were performed on 4 μm sections according to established routine protocols.
Blood was periodically collected from mice via submandibular bleeds into Microtainer tubes coated with K2EDTA (Becton Dickinson, NJ, USA) and complete blood counts were performed on a Horiba Scil Vet abc Plus hematology system.
For tasquinimod studies, WT recipient mice (n=7-10/group) were lethally irradiated (10.5 Gy) and received ckit^+ cells transduced with […] or JAK2^(WT) retroviral virus. Tasquinimod treatment (ABR-215050, Biorbyt) was administered via drinking water at 30 mg/kg/day dissolved in 3% sucrose in autoclaved water. Tasquinimod was first dissolved in DMSO and mixed with 3% sucrose, 2% PEG300 (Sigma) in water. Vehicle-treated groups received DMSO-, PEG300-treated water with 3% sucrose. Drinking bottles were renewed twice a week. Treatment was started at 5 weeks post-transplant until 10 post-transplant, and resumed at 13 weeks post-transplant until sacrifice at 20 weeks post-transplant. Mice were randomly assigned to transplant and treatment groups.
To further validate the role of S100A8/S100A9 in the fibrotic initiation and progression, the inventors sought to use a S100A9-inhibitor known as tasquinimod (ABR-215050) in mice developing JAK2(V617F)-mediated myelofibrosis. […] Tasquinimod treatment was administered via drinking water starting at 5 weeks post-transplant, until sacrifice at 20 weeks post-transplant with a treatment break at 10 weeks post-transplant to minimize deleterious effects on normal granulocyte function (FIG. 4A).

[2] = target: T1, S100A9 protein (Homo sapiens, UniProt P06702); settings: cited from earlier work
T1 sequence (P06702 1-114): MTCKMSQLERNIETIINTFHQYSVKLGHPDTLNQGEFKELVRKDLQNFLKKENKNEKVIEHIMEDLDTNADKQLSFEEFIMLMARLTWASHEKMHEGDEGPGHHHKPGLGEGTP

[3] = system: S100A8 and S100A9; settings: Stewart et al, Bone Marrow Res. 2018; cited from earlier work
[4] = weeks 5-10 and 13-20 post-transplant, vs vehicle
[5] = weeks 5-10 and 13-20 post-transplant, vs vehicle, listed as Tasquinimod

COc1cccc2c1c(O)c(C(=O)N(C)c1ccc(C(F)(F)F)cc1)c(=O)n2C [tasquinimod, 4-hydroxy-5-methoxy-N,1-dimethyl-2-oxo-N-[4-(trifluoromethyl)phenyl]-1,2-dihydroquinoline-3-carboxamide]
thrombocytosis (platelet counts in peripheral blood) [1, 4]: did not develop thrombocytosis
MPN-specific leukocytosis (white blood cell counts from peripheral blood) [1, 4]: did not develop MPN-specific leukocytosis
splenomegaly (spleen weights normalized to mouse weight) [1, 4]: completely normalized
MPN-specific leukocytosis (white blood cell counts from peripheral blood) [1, 5]: normalizes splenomegaly and leukocytosis
splenomegaly (spleen weights normalized to mouse weight) [1, 5]: normalizes splenomegaly
bone marrow fibrosis grade (reticulin grade) [1]: reduced fibrosis grade
bone marrow fibrosis grade (reticulin grade) ([1]; listed as Tasquinimod): reduces fibrosis in bone marrow
binding to S100A9 protein and effect on its interaction with TLR4 and RAGE receptors [2]: binds to S100A9 protein and impedes its interaction with TLR4 and RAGE receptors

Cc1sc2c(c1C)C(c1ccc(Cl)cc1)=N[C@@H](CC(=O)OC(C)(C)C)c1nnc(C)n1-2 [JQ1]
S100A8 and S100A9 mRNA and protein levels [3]: suppress S100A8 and S100A9 mRNA and protein levels
